Data from patent publication US20220402935A1, “HETEROCYCLIC COMPOUND” (FIMECS, INC., priority 2019, published 2022).

Biological target: T1, IRAK-M (Homo sapiens, UniProt Q9Y616)
T1 sequence (Q9Y616 1-596): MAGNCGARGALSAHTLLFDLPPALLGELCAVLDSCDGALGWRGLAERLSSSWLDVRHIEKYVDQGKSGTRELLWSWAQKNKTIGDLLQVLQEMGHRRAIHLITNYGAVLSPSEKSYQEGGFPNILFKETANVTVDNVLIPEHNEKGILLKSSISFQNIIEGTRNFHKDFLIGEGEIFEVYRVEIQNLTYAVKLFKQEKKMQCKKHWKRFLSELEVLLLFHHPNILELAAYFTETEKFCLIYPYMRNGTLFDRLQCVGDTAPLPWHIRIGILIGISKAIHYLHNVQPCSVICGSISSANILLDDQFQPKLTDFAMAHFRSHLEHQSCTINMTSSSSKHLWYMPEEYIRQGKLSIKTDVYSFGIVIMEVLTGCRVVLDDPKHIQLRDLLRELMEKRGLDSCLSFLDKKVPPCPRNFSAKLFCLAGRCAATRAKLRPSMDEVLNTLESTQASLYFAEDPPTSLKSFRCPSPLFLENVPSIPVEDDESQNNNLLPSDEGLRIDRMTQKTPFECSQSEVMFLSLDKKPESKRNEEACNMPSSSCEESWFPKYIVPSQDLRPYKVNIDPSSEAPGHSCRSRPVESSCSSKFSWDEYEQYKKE
Assay: IRAK-M binding inhibitory activity (KINOMEscan active site-dependent competitive assay)
Design: purchased Eurofins Discover X
Conditions: for remaining binding at 1 µM: concentration of the test compound 1 μM, first symbol of cell, read-out: IRAK-M binding inhibition activity % Ctrl
Protocol: IRAK-M binding inhibitory activity was evaluated using active site-dependent competitive assay KINOMEscan® provided by Eurofins Discover X (Goldstein, D. M. et al. High-throughput kinase profiling as a platform for drug discovery. Nat. Rev. Drug Discovery. 7, 391-397 (2008)). IRAK-M binding inhibitory activity of the test compound was evaluated. […] The “% Ctrl” is calculated by the following formula.
(test compound signal−positive control compound signal)/(negative control compound signal−positive control compound signal)×100
Negative control compound=DMSO (100 Ctrl)
Positive control compound=control compound (0%×Ctrl)

| Structure (SMILES) | remaining binding at 1 µM | IC50 (second symbol of cell, read-out: IRAK-M binding inhibition IC50 value) |
| --- | --- | --- |
| O=S(=O)(c1cnn(Cc2ccccc2)c1)N1CCC(Oc2ncnc3ccsc23)CC1 [Ref. example 59, 4-((1-((1-benzyl-1H-pyrazol-4-yl)sulfonyl)piperidin-4-yl)oxy)thieno[3,2-d]pyrimidine] | 25 to 50% |  |
| O=S(=O)(c1ccccc1Cl)N1CCC(Oc2ncnc3ccsc23)CC1 [Ref. example 45, 4-((1-((2-chlorophenyl)sulfonyl)piperidin-4-yl)oxy)thieno[3,2-d]pyrimidine] | < 25% |  |
| O=C1CCC(N2C(=O)c3cccc(OCCOCCOc4cc(CN5CCC(Oc6ccnc7ccsc67)CC5)on4)c3C2=O)C(=O)N1 (stereo not shown) [Example 66, 2-(2,6-dioxopiperidin-3-yl)-4-(2-(2-((5-((4-(thieno[3,2-b]pyridin-7-yloxy)piperidin-1-yl)methyl)isoxazol-3-yl)oxy)ethoxy)ethoxy)isoindoline-1,3-dione] |  | 100 to 300 nM |
| COc1ccc(Nc2nc(C)nc3cc(C)sc23)cc1OC [Ref. example 66, N-(3,4-dimethoxyphenyl)-2,6-dimethylthieno[3,2-d]pyrimidin-4-amine] | 50 to 75% |  |
| Cc1ncc(CN2CCC(Oc3ccnc4ccsc34)CC2)s1 [Ref. example 80, 7-((1-((2-methylthiazol-5-yl)methyl)piperidin-4-yl)oxy)thieno[3,2-b]pyridine] | 25 to 50% |  |
| Cc1ncsc1-c1ccc(CNC(=O)[C@@H]2C[C@@H](O)CN2C(=O)[C@H](C(C)C)N2Cc3ccccc3C2=O)c(OCCOCCOCCOc2cc(CN3CCC(Oc4ccnc5ccsc45)CC3)on2)c1 [Example 62, (2S,4R)-4-hydroxy-1-((S)-3-methyl-2-(1-oxoisoindolin-2-yl)butanoyl)-N-(4-(4-methylthiazol-5-yl)-2-(2-(2-(2-((5-((4-(thieno[3,2-b]pyridin-7-yloxy)piperidin-1-yl)methyl)isoxazol-3-yl)oxy)ethoxy)ethoxy)ethoxy)benzyl)pyrrolidine-2-carboxamide] | 50 to 75% |  |
| O=S(=O)(c1c(F)cccc1F)N1CCC(Oc2ncnc3ccsc23)CC1 [Ref. example 38, 4-((1-((2,6-difluorophenyl)sulfonyl)piperidin-4-yl)oxy)thieno[3,2-d]pyrimidine] | 25 to 50% |  |
| c1ccc(-c2cc3ncnc(NCC4CC4)c3s2)cc1 [Ref. example 14, N-(cyclopropylmethyl)-6-phenylthieno[3,2-d]pyrimidin-4-amine] | 25 to 50% |  |
| Cc1ccccc1S(=O)(=O)N1CCC(Oc2ncnc3ccsc23)CC1 [Ref. example 47, 4-((1-(o-tolylsulfonyl)piperidin-4-yl)oxy)thieno[3,2-d]pyrimidine] | < 25% |  |
| C=CCn1oc(CN2CCC(Oc3ccnc4ccsc34)CC2)cc1=O [Ref. example 84, 2-allyl-5-((4-(thieno[3,2-b]pyridin-7-yloxy)piperidin-1-yl)methyl)isoxazol-3(2H)-one] | 25 to 50% |  |
| Cn1cc(CN2CCC(Oc3ccnc4ccsc34)CC2)cn1 [Ref. example 73, 7-((1-((1-methyl-1H-pyrazol-4-yl)methyl)piperidin-4-yl)oxy)thieno[3,2-b]pyridine] | ≥ 75% |  |

The remaining lines, values ahead:

| remaining binding at 1 µM | IC50 (second symbol of cell, read-out: IRAK-M binding inhibition IC50 value) | Structure (SMILES) |
| --- | --- | --- |
| < 25% |  | c1cc(Nc2ncnc3ccsc23)ccn1 [Ref. example 21, N-(pyridin-4-yl)thieno[3,2-d]pyrimidin-4-amine] |
| 25 to 50% |  | O=C1OCc2cc(Nc3ncnc4ccsc34)ccc21 [Ref. example 29, 5-(thieno[3,2-d]pyrimidin-4-ylamino)isobenzofuran-1(3H)-one] |
| 50 to 75% |  | FC(F)(F)c1ncccc1Nc1ncnc2ccsc12 [Ref. example 24, N-(2-(trifluoromethyl)pyridin-3-yl)thieno[3,2-d]pyrimidin-4-amine] |
| 50 to 75% |  | NC(=O)c1cccc(Nc2ncnc3ccsc23)c1 [Ref. example 20, 3-(thieno[3,2-d]pyrimidin-4-ylamino)benzamide] |
| ≥ 75% |  | COc1ccccc1Nc1ncnc2cc(-c3ccccc3)sc12 [Ref. example 13, N-(2-methoxyphenyl)-6-phenylthieno[3,2-d]pyrimidin-4-amine] |
